{"source": "patent US11203591B2", "about": "“Substituted 6-azabenzimidazole compounds” (Gilead Sciences, Inc., priority 2018, dated 2021)", "target": "human HPK1 (MAP4K1) (Homo sapiens (Human), UniProt Q92918)", "sequence (Q92918 17-274)": "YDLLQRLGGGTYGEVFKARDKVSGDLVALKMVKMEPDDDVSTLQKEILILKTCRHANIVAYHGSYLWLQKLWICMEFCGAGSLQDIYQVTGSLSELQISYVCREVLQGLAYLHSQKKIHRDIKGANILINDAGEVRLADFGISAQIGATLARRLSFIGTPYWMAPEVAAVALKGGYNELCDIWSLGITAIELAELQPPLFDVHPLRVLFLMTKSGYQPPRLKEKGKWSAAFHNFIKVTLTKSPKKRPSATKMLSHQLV", "assay": "HPK1 IC50 Assay (TR-FRET peptide phosphorylation)", "format": "biochemical", "outline": "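Pre-activated, dually phosphorylated baculovirus-expressed HPK1 kinase domain (0.15 nM) preincubated 15 min with compound, then reacted 3 h at 25° C with 10 μM ATP and 1 μM STK S1 peptide in BES pH 7.0 buffer. Phosphopeptide read by TR-FRET (665/620 nm); four-parameter fit, geometric-mean IC50.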", "key": {"[1]": {"details": "recombinant HPK1 kinase domain 0.15 nM, 10 μM ATP, 1 μM STK S1 peptide, geometric mean of multiple experiments"}, "[2]": {"details": "0.15 nM HPK1, 10 μM ATP, 1 μM STK S1 peptide substrate, geometric mean"}}}
{"compound": "CC(C)n1cnc2cc(-c3cnc4c(c3)N([C@H]3C[C@@](C)(N5CCC6CC6C5)C3)C(=O)C4(C)C)nc(Nc3cc(C(=O)NC4(C(F)F)CC4)c(Cl)c(F)c3F)c21", "note": "(mixture of isomers) [Example 260, 5-((6-(1-((1s,3s)-3-(3-azabicyclo[4.1.0]heptan-3-yl)-3-methylcyclobutyl)-3,3-dimethyl-2-oxo-2,3-dihydro-1H-pyrrolo[3,2-b]pyridin-6-yl)-3-isopropyl-3H-imidazo[4,5-c]pyridin-4-yl)amino)-2-chloro-N-(1-(difluoromethyl)cyclopropyl)-3,4-difluorobenzamide]", "values": [{"measurement": "IC50", "setting": "[1]", "value": 0.08, "unit": "nM"}]}
{"compound": "CC(C)n1cnc2cc(-c3cc4c(nc3F)C(C)(C)C(=O)N4[C@H]3C[C@@](C)(N4CCCCC4)C3)nc(Nc3cc(C(=O)NCC(F)F)c(Cl)c(F)c3F)c21", "note": "[Example 272, 2-chloro-N-(2,2-difluoroethyl)-3,4-difluoro-5-((6-(5-fluoro-3,3-dimethyl-1-((1s,3s)-3-methyl-3-(piperidin-1-yl)cyclobutyl)-2-oxo-2,3-dihydro-1H-pyrrolo[3,2-b]pyridin-6-yl)-3-isopropyl-3H-imidazo[4,5-c]pyridin-4-yl)amino)benzamide]", "values": [{"measurement": "IC50", "setting": "[2]", "value": 0.09, "unit": "nM"}]}
{"compound": "CNC(=O)c1cc(Nc2nc(-c3ccc4c(c3)N([C@H]3C[C@@H](N5CCCCC5)C3)C(=O)C43CCN(S(=O)(=O)C4CC4)CC3)cc3ncn(C4CC4)c23)ccc1C", "note": "[Example 167]", "values": [{"measurement": "IC50", "setting": "[1]", "value": 0.1, "unit": "nM"}]}
{"compound": "CC(C)n1cnc2cc(-c3cnc4c(c3)N([C@]3(C)C[C@H](N5CCCCC5)C3)C(=O)C4(C)C)nc(Nc3cc(C(=O)NC4(C(F)F)CC4)c(Cl)c(F)c3F)c21", "note": "[Example 297, 2-Chloro-N-(1-(difluoromethyl)cyclopropyl)-5-((6-(3,3-dimethyl-1-((1s,3s)-1-methyl-3-(piperidin-1-yl)cyclobutyl)-2-oxo-2,3-dihydro-1H-pyrrol[3,2-b]pyridin-6-yl)-3-isopropyl-3H-imidazo[4,5-c]pyridin-4-yl)amino)-3,4-difluorobenzamide]", "values": [{"measurement": "IC50", "setting": "[2]", "value": 0.2, "unit": "nM"}]}
{"compound": "Cc1ccc(Nc2nc(-c3ccc4c(c3)N([C@H]3C[C@@H](N5CCCCC5)C3)C(=O)C4(C)C)cc3ncn(C(C)C)c23)cc1C(=O)NCC(C)C", "note": "[Example 139]", "values": [{"measurement": "IC50", "setting": "[1]", "value": 0.06, "unit": "nM"}]}
{"compound": "CCNC(=O)c1cc(Nc2nc(-c3ccc4c(c3)N([C@H]3C[C@@](C)(N5CCCCC5)C3)C(=O)C4(C)C)cc3ncn(C(C)C)c23)c(F)c(F)c1Cl", "note": "[Example 288, 2-chloro-5-((6-(3,3-dimethyl-1-((1s,3s)-3-methyl-3-(piperidin-1-yl)cyclobutyl)-2-oxoindolin-6-yl)-3-isopropyl-3H-imidazo[4,5-c]pyridin-4-yl)amino)-N-ethyl-3,4-difluorobenzamide]", "values": [{"measurement": "IC50", "setting": "[2]", "value": 0.08, "unit": "nM"}]}
{"compound": "CC(=O)N1CCC2(CC1)C(=O)N([C@H]1C[C@@H](N3CCCCC3)C1)c1cc(-c3cc4ncn(C(C)C)c4c(Nc4cc(C(=O)NC5CC5)c(C)cc4F)n3)ccc12", "note": "[Example 91]", "values": [{"measurement": "IC50", "setting": "[1]", "value": 0.1, "unit": "nM"}]}
{"compound": "CNC(=O)c1cc(Nc2nc(-c3ccc4c(c3)N([C@H]3C[C@@H](NC(C)C)C3)C(=O)C4(C)C)cc3ncn(C(C)C)c23)c(F)cc1C", "note": "[Example 14]", "values": [{"measurement": "IC50", "setting": "[1]", "value": 0.3, "unit": "nM"}]}
{"compound": "Cc1ccc(Nc2nc(-c3ccc4c(c3)N([C@H]3C[C@@H](N5CCC[C@H](O)C5)C3)C(=O)C4(C)C)cc3ncn(C4CC4)c23)cc1C(N)=O", "note": "[Example 36]", "values": [{"measurement": "IC50", "setting": "[1]", "value": 0.1, "unit": "nM"}]}
{"compound": "CC[C@H](C)n1cnc2cc(-c3ccc4c(c3)N([C@H]3C[C@@H](N5CCCCC5)C3)C(=O)C43CCN(C(C)=O)CC3)nc(Nc3ccc(C)c(C(=O)NC)c3)c21", "note": "[Example 48]", "values": [{"measurement": "IC50", "setting": "[1]", "value": 0.1, "unit": "nM"}]}
{"compound": "CNC(=O)c1cc(Nc2nc(-c3ccc4c(c3)N([C@H]3C[C@@H](NC5CC(F)(F)C5)C3)C(=O)C4(C)C)cc3ncn(C(C)C)c23)ccc1C", "note": "[Example 81]", "values": [{"measurement": "IC50", "setting": "[1]", "value": 0.3, "unit": "nM"}]}
{"compound": "CC[C@@H](C)NC(=O)c1cc(Nc2nc(-c3ccc4c(c3)N([C@H]3C[C@@H](N5CCCCC5)C3)C(=O)C43CCN(C(C)=O)CC3)cc3ncn(C(C)C)c23)c(F)cc1C", "note": "[Example 87]", "values": [{"measurement": "IC50", "setting": "[1]", "value": 0.3, "unit": "nM"}]}
{"compound": "CCNC(=O)c1cc(Nc2nc(-c3cnc4c(c3)N(C3CC(C)(N5CCC6C[C@@H]6C5)C3)C(=O)C4(C)C)cc3ncn(C(C)C)c23)c(F)c(F)c1Cl", "note": "(stereo partly shown) [Example 252, 5-((6-(1-((1s,3s)-3-(3-azabicyclo[4.1.0]heptan-3-yl)-3-methylcyclobutyl)-3,3-dimethyl-2-oxo-2,3-dihydro-1H-pyrrolo[3,2-b]pyridin-6-yl)-3-isopropyl-3H-imidazo[4,5-c]pyridin-4-yl)amino)-2-chloro-N-ethyl-3,4-difluorobenzamide]", "values": [{"measurement": "IC50", "setting": "[1]", "value": 0.05, "unit": "nM"}]}
{"compound": "Cc1ccc(Nc2nc(-c3ccc4c(c3)N([C@H]3C[C@@H](N5CCCCC5)C3)C(=O)C43CCN(C4COC4)CC3)cc3ncn(C(C)C)c23)cc1C(=O)NC(C)C", "note": "[Example 73]", "values": [{"measurement": "IC50", "setting": "[1]", "value": 0.1, "unit": "nM"}]}
{"compound": "CC(C)n1cnc2cc(-c3cnc4c(c3)N([C@H]3C[C@@](C)(N5CCC6CC6C5)C3)C(=O)C4(C)C)nc(Nc3cc(C(=O)NC4(CF)CC4)c(Cl)c(F)c3F)c21", "note": "(stereo partly shown) [Example 227, 5-((6-(1-((1s,3s)-3-(3-Azabicyclo[4.1.0]heptan-3-yl)-3-methylcyclobutyl)-3,3-dimethyl-2-oxo-2,3-dihydro-1H-pyrrolo[3,2-b]pyridin-6-yl)-3-isopropyl-3H-imidazo[4,5-c]pyridin-4-yl)amino)-2-chloro-3,4-difluoro-N-(1-(fluoromethyl)cyclopropyl)benzamide]", "values": [{"measurement": "IC50", "setting": "[1]", "value": 0.1, "unit": "nM"}]}
{"compound": "CNC(=O)c1cc(Nc2nc(-c3ccc4c(c3)N([C@H]3C[C@@H](N5CC[C@@H](F)C5)C3)C(=O)C4(C)C)cc3ncn(C(C)C)c23)c(F)cc1C", "note": "[Example 108]", "values": [{"measurement": "IC50", "setting": "[1]", "value": 0.1, "unit": "nM"}]}
{"compound": "Cc1cc(F)c(Nc2nc(-c3ccc4c(c3)N([C@H]3C[C@@](C)(N5CCCCC5)C3)C(=O)C4(C)C)cc3ncn(C(C)C)c23)cc1C(=O)NCC(F)F", "note": "[Example 266, N-(2,2-difluoroethyl)-5-((6-(3,3-dimethyl-1-((1s,3s)-3-methyl-3-(piperidin-1-yl)cyclobutyl)-2-oxoindolin-6-yl)-3-isopropyl-3H-imidazo[4,5-c]pyridin-4-yl)amino)-4-fluoro-2-methylbenzamide]", "values": [{"measurement": "IC50", "setting": "[2]", "value": 0.06, "unit": "nM"}]}
{"compound": "Cc1cc(F)c(Nc2nc(-c3ccc4c(c3)N([C@H]3C[C@@H](N5CCC[C@@H](F)C5)C3)C(=O)C4(C)C)cc3ncn(C(C)C)c23)cc1C(=O)NC(C)C", "note": "[Example 110]", "values": [{"measurement": "IC50", "setting": "[1]", "value": 0.2, "unit": "nM"}]}
{"compound": "Cc1ccc(Nc2nc(-c3ccc4c(c3)N([C@H]3C[C@@](C)(N5CCCCC5)C3)C(=O)C4(C)C)cc3ncn(C4CC4)c23)cc1C(N)=O", "note": "[Example 183, 5-((3-cyclopropyl-6-(3,3-dimethyl-1-((1s,3s)-3-methyl-3-(piperidin-1-yl)cyclobutyl)-2-oxoindolin-6-yl)-3H-imidazo[4,5-c]pyridin-4-yl)amino)-2-methylbenzamide]", "values": [{"measurement": "IC50", "setting": "[1]", "value": 0.05, "unit": "nM"}]}
{"compound": "CCNC(=O)c1cc(Nc2nc(-c3ccc4c(c3)N([C@H]3C[C@@H](N5CCCCC5)C3)C(=O)C43CCN(C(=O)CC)CC3)cc3ncn(CC)c23)c(F)cc1C", "note": "[Example 56]", "values": [{"measurement": "IC50", "setting": "[1]", "value": 0.3, "unit": "nM"}]}
{"compound": "CNC(=O)c1cc(Nc2nc(-c3ccc4c(c3)N([C@H]3C[C@@H](N5CCCCC5)C3)C(=O)C43CCN(C(=O)C4(C)CC4)CC3)cc3ncn(C(C)C)c23)ccc1C", "note": "[Example 152, 5-((3-isopropyl-6-(1′-(1-methylcyclopropane-1-carbonyl)-2-oxo-1-((1s,3s)-3-(piperidin-1-yl)cyclobutyl)spiro[indoline-3,4′-piperidin]-6-yl)-3H-imidazo[4,5-c]pyridin-4-yl)amino)-N,2-dimethylbenzamide]", "values": [{"measurement": "IC50", "setting": "[1]", "value": 0.2, "unit": "nM"}]}
{"compound": "Cc1c(C(=O)NC2(C(F)F)CC2)cc(Nc2nc(-c3cnc4c(c3)N([C@H]3C[C@@](C)(N5CCCC6(CC6)C5)C3)C(=O)C4(C)C)cc3ncn(C(C)C)c23)c(F)c1F", "note": "[Example 194, N-(1-(Difluoromethyl)cyclopropyl)-5-((6-(3,3-dimethyl-1-((1s,3s)-3-methyl-3-(5-azaspiro[2.5]octan-5-yl)cyclobutyl)-2-oxo-2,3-dihydro-1H-pyrrolo[3,2-b]pyridin-6-yl)-3-isopropyl-3H-imidazo[4,5-c]pyridin-4-yl)amino)-3,4-difluoro-2-methylbenzamide]", "values": [{"measurement": "IC50", "setting": "[1]", "value": 0.06, "unit": "nM"}]}
{"compound": "Cc1c(C(=O)NC2(C(F)F)CC2)cc(Nc2nc(-c3cnc4c(c3)N([C@H]3C[C@@](C)(N5CCOC6(CC6)C5)C3)C(=O)C4(C)C)cc3ncn(C(C)C)c23)c(F)c1F", "note": "[Example 193, N-(1-(Difluoromethyl)cyclopropyl)-5-((6-(3,3-dimethyl-1-((1s,3s)-3-methyl-3-(4-oxa-7-azaspiro[2.5]octan-7-yl)cyclobutyl)-2-oxo-2,3-dihydro-1H-pyrrolo[3,2-b]pyridin-6-yl)-3-isopropyl-3H-imidazo[4,5-c]pyridin-4-yl)amino)-3,4-difluoro-2-methylbenzamide]", "values": [{"measurement": "IC50", "setting": "[1]", "value": 0.2, "unit": "nM"}]}
{"compound": "CC(C)n1cnc2cc(-c3cnc4c(c3)N([C@H]3C[C@@](C)(N5CCCCC5)C3)C(=O)C4(C)C)nc(Nc3cc(C(=O)NCC(F)F)c(F)c(F)c3F)c21", "note": "[Example 274, N-(2,2-difluoroethyl)-5-((6-(3,3-dimethyl-1-((1s,3s)-3-methyl-3-(piperidin-1-yl)cyclobutyl)-2-oxo-2,3-dihydro-1H-pyrrolo[3,2-b]pyridin-6-yl)-3-isopropyl-3H-imidazo[4,5-c]pyridin-4-yl)amino)-2,3,4-trifluorobenzamide]", "values": [{"measurement": "IC50", "setting": "[2]", "value": 0.04, "unit": "nM"}]}
{"compound": "Cc1c(C(=O)NC2(C(F)F)CC2)cc(Nc2nc(-c3cnc4c(c3)N(C3CC(C)(N5CCC6C[C@H]5CO6)C3)C(=O)C4(C)C)cc3ncn(C(C)C)c23)c(F)c1F", "note": "(stereo partly shown) [Example 192, 5-((6-(1-((1s,3s)-3-(6-oxa-2-azabicyclo[3.2.1]octan-2-yl)-3-methylcyclobutyl)-3,3-dimethyl-2-oxo-2,3-dihydro-1H-pyrrolo[3,2-b]pyridin-6-yl)-3-isopropyl-3H-imidazo[4,5-c]pyridin-4-yl)amino)-N-(1-(difluoromethyl)cyclopropyl)-3,4-difluoro-2-methylbenzamide]", "values": [{"measurement": "IC50", "setting": "[1]", "value": 0.1, "unit": "nM"}]}
